Legend:
[1] = biological target: T1, PTPN2 (HiBIT-PTPN2 in 293T.109 cells) (Homo sapiens, UniProt P17706); assay: HiBiT Degradation 293T.109 PTPN2 (Nano-Glo HiBiT Lytic Assay); format: cell-based; settings: 24.0 hours
T1 construct: expressed in transfected cells; host or cells: 293T.109 (293T WT from ATCC)
T1 sequence (P17706 1-415): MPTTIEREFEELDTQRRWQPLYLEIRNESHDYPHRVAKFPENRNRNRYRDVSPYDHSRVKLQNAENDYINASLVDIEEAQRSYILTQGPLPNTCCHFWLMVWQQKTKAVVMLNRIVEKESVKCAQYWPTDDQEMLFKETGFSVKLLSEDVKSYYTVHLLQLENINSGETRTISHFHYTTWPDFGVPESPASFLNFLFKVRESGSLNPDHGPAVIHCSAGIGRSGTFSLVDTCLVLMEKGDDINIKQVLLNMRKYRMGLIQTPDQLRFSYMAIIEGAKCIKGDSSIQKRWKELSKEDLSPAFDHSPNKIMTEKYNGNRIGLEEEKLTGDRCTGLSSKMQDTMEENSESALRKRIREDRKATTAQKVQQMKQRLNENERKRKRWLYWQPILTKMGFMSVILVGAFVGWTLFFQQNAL
Procedure, shortened: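 293T.109 cells with ectopic N-terminal HiBiT-tagged PTPN2 (5000/well) exposed to compounds for 24 h at 37 °C, 5% CO2; 11-point half-log titration from 10 μM top, duplicates. Remaining HiBiT-PTPN2 read as luminescence with Nano-Glo HiBiT lytic reagent, normalised to untreated cells (0%) and reagent-free wells.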

PTPN2 (B16F10.4 cells) = biological target: T2, PTPN2 (B16F10.4 cells) (Mus musculus, UniProt Q06180); assay: HiBiT Degradation B16F10.4 PTPN2; format: cell-based; settings: 24.0 hours
T2 construct: HiBiT; host or cells: B16F10.4
T2 sequence (Q06180 1-406): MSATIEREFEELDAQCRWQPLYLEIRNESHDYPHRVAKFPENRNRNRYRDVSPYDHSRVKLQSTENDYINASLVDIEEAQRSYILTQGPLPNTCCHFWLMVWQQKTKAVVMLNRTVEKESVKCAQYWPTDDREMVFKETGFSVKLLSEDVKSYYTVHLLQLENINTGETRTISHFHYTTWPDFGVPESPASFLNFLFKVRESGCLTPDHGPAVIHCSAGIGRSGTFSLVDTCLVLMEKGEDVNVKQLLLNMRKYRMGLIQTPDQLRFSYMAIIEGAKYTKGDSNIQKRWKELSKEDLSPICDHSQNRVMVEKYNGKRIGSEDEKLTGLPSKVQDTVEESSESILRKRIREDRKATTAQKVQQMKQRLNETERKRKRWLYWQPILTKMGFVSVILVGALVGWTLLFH

Compound	DC50 [1]	DC50 (PTPN2 (B16F10.4 cells))
Cn1c(=O)n(C2CCC(=O)NC2=O)c2ccc(C3CCN(C(=O)Nc4cccc(CS(=O)(=O)N5CC[C@H](Oc6cccc(-c7sc(C(=O)O)c(OCC(=O)O)c7Cl)c6)CC5(C)C)c4)CC3)cc21 (stereo partly drawn) [Example 225, 3-(carboxymethoxy)-4-chloro-5-(3-(((4S)-1-((3-(4-(1-(2,6-dioxopiperidin-3-yl)-3-methyl-2-oxo-2,3-dihydro-1H-benzo[d]imidazol-5-yl)piperidine-1-carboxamido)benzyl)sulfonyl)-2,2-dimethylpiperidin-4-yl)oxy)phenyl)thiophene-2-carboxylic acid]	200 to 1000 nM	50 to 200 nM
Cn1c(=O)n(C2CCC(=O)NC2=O)c2ccc(C3CCN(C(=O)Nc4cccc(CS(=O)(=O)N5CCC(Nc6cccc(-c7sc(C(=O)O)c(OCC(=O)O)c7Cl)c6)CC5)c4F)CC3)cc21 (stereo not shown) [Example 99, 3-(carboxymethoxy)-4-chloro-5-[3-[[1-[[3-[[4-[1-(2,6-dioxo-3-piperidyl)-3-methyl-2-oxo-benzimidazol-5-yl]piperidine-1-carbonyl]amino]-2-fluoro-phenyl]methylsulfonyl]-4-piperidyl]amino]phenyl]thiophene-2-carboxylic acid]	50 to 200 nM	< 50 nM
Cn1c(=O)n(C2CCC(=O)NC2=O)c2ccc([C@H]3CN(C(=O)Nc4cccc(CS(=O)(=O)N5CC[C@H](Nc6cccc(-c7sc(C(=O)O)c(OCC(=O)O)c7Cl)c6)CC5(C)C)c4)CC[C@@H]3F)cc21 (stereo partly drawn) [Example 214, 3-(carboxymethoxy)-4-chloro-5-[3-[[(4S)-1-[[3-[[(3S,4S)-3-[1-(2,6-dioxo-3-piperidyl)-3-methyl-2-oxo-benzimidazol-5-yl]-4-fluoro-piperidine-1-carbonyl]amino]phenyl]methylsulfonyl]-2,2-dimethyl-4-piperidyl]amino]phenyl]thiophene-2-carboxylic acid]	200 to 1000 nM	50 to 200 nM
Cn1c(=O)n(C2CCC(=O)NC2=O)c2ccc(OC3CN(C(=O)Nc4cccc(CS(=O)(=O)N5CC[C@H](Nc6cccc(-c7sc(C(=O)O)c(OCC(=O)O)c7Cl)c6)CC5(C)C)c4)C3)cc21 (stereo partly shown) [Example 116]	50 to 200 nM	50 to 200 nM
CC1(C)C[C@@H](Nc2cccc(-c3sc(C(=O)O)c(OCC(=O)O)c3Cl)c2)CCN1S(=O)(=O)Cc1cccc(NC(=O)CNc2ccc3c(c2)C(=O)N(C2CCC(=O)NC2=O)C3=O)c1 (stereo partly drawn) [Example 34, 3-(carboxymethoxy)-4-chloro-5-[3-[[(4S)-1-[[3-[[2-[[2-(2,6-dioxo-3-piperidyl)-1,3-dioxo-isoindolin-5-yl]amino]acetyl]amino]phenyl]methylsulfonyl]-2,2-dimethyl-4-piperidyl]amino]phenyl]thiophene-2-carboxylic acid]	200 to 1000 nM	200 to 1000 nM
CC1(C)C[C@@H](Nc2cccc(-c3sc(C(=O)O)c(OCC(=O)O)c3Cl)c2)CCN1S(=O)(=O)Cc1cccc(NC(=O)CN2CCC(c3ccc4c(c3)oc(=O)n4C3CCC(=O)NC3=O)CC2)c1 (stereo partly drawn) [Example 70, 3-(Carboxymethoxy)-4-chloro-5-[3-[[(4S)-1-[[3-[[2-[4-[3-(2,6-dioxo-3-piperidyl)-2-oxo-1,3-benzoxazol-6-yl]-1-piperidyl]acetyl]amino]phenyl]methylsulfonyl]-2,2-dimethyl-4-piperidyl]amino]phenyl]thiophene-2-carboxylic acid]	50 to 200 nM	200 to 1000 nM
C[C@@H]1CN(C(=O)Nc2cccc(CS(=O)(=O)N3CC[C@H](Nc4cccc(-c5sc(C(=O)O)c(OCC(=O)O)c5Cl)c4)CC3(C)C)c2)CCN1c1ccc2c(c1)n(C)c(=O)n2C1CCC(=O)NC1=O (stereo partly drawn) [Example 209, 3-(carboxymethoxy)-4-chloro-5-[3-[[(4S)-1-[[3-[[(3R)-4-[1-(2,6-dioxo-3-piperidyl)-3-methyl-2-oxo-benzimidazol-5-yl]-3-methyl-piperazine-1-carbonyl]amino]phenyl]methylsulfonyl]-2,2-dimethyl-4-piperidyl]amino]phenyl]thiophene-2-carboxylic acid]	50 to 200 nM	50 to 200 nM
CC1(C)C[C@@H](Nc2cccc(-c3sc(C(=O)O)c(OCC(=O)O)c3Cl)c2)CCN1S(=O)(=O)Cc1cccc(NC(=O)COC2CN(C(=O)CNc3cccc4c3CN(C3CCC(=O)NC3=O)C4=O)C2)c1 (stereo partly shown) [Example 92]	50 to 200 nM	200 to 1000 nM

The remaining lines, values ahead:

DC50 [1]	DC50 (PTPN2 (B16F10.4 cells))	Compound
50 to 200 nM	50 to 200 nM	COCCn1c(=O)n(C2CCC(=O)NC2=O)c2ccc(C3CCN(C(=O)Nc4cccc(CS(=O)(=O)N5CC[C@H](Nc6cccc(-c7sc(C(=O)O)c(OCC(=O)O)c7Cl)c6)CC5(C)C)c4)CC3)cc21 (stereo partly drawn) [Example 160, 3-(carboxymethoxy)-4-chloro-5-(3-(((4S)-1-((3-(4-(1-(2,6-dioxopiperidin-3-yl)-3-(2-methoxyethyl)-2-oxo-2,3-dihydro-1H-benzo[d]imidazol-5-yl)piperidine-1-carboxamido)benzyl)sulfonyl)-2,2-dimethylpiperidin-4-yl)amino)phenyl)thiophene-2-carboxylic acid]
50 to 200 nM	< 50 nM	Cn1c(=O)n(C2CCC(=O)NC2=O)c2ccc(CC3CCN(C(=O)Nc4cccc(CS(=O)(=O)N5CC[C@H](Nc6cccc(-c7sc(C(=O)O)c(OCC(=O)O)c7Cl)c6)CC5(C)C)c4)CC3)cc21 (stereo partly drawn) [Example 175, 3-(carboxymethoxy)-4-chloro-5-[3-[[(4S)-1-[[3-[[4-[[1-(2,6-dioxo-3-piperidyl)-3-methyl-2-oxo-benzimidazol-5-yl]methyl]piperidine-1-carbonyl]amino]phenyl]methylsulfonyl]-2,2-dimethyl-4-piperidyl]amino]phenyl]thiophene-2-carboxylic acid]
< 50 nM	50 to 200 nM	Cn1c(=O)n(C2CCC(=O)NC2=O)c2ccc(N3CCC(CCNC(=O)Nc4cccc(CS(=O)(=O)N5CC[C@H](Nc6cccc(-c7sc(C(=O)O)c(OCC(=O)O)c7Cl)c6)CC5(C)C)c4)CC3)cc21 (stereo partly drawn) [Example 174, 3-(carboxymethoxy)-4-chloro-5-[3-[[(4S)-1-[[3-[2-[1-[1-(2,6-dioxo-3-piperidyl)-3-methyl-2-oxo-benzimidazol-5-yl]-4-piperidyl]ethylcarbamoylamino]phenyl]methylsulfonyl]-2,2-dimethyl-4-piperidyl]amino]phenyl]thiophene-2-carboxylic acid]
< 50 nM	< 50 nM	Cn1c(=O)n(C2CCC(=O)NC2=O)c2ccc(C3CCN(C(=O)Nc4cccc(CS(=O)(=O)N5CC[C@H](Nc6cccc(-c7sc(C(=O)O)c(OCC(=O)O)c7Cl)c6)CC5(C)C)c4)CC3F)cc21 (stereo partly drawn) [Example 170, 3-(carboxymethoxy)-4-chloro-5-[3-[[(4S)-1-[[3-[[4-[1-(2,6-dioxo-3-piperidyl)-3-methyl-2-oxo-benzimidazol-5-yl]-3-fluoro-piperidine-1-carbonyl]amino]phenyl]methylsulfonyl]-2,2-dimethyl-4-piperidyl]amino]phenyl]thiophene-2-carboxylic acid]
< 50 nM	≥ 1000 nM	O=C(O)COc1c(C(=O)O)sc(-c2cccc(NC3CCN(S(=O)(=O)Cc4cccc(NC(=O)C5CN(C(=O)CNc6cccc7c6CN(C6CCC(=O)NC6=O)C7=O)C5)c4F)CC3)c2)c1Cl (stereo not shown) [Example 75]
< 50 nM	50 to 200 nM	CC1(C)C[C@@H](Nc2cccc(-c3sc(C(=O)O)c(OCC(=O)O)c3Cl)c2)CCN1S(=O)(=O)Cc1cccc(NC(=O)C2CCN(c3ccc4c5c(cccc35)N(C3CCC(=O)NC3=O)C4=O)CC2)c1 (stereo partly shown) [Example 216]
< 50 nM	< 50 nM	CC1(C)C[C@@H](Nc2cccc(-c3sc(C(=O)O)c(OCC(=O)O)c3Cl)c2)CCN1S(=O)(=O)Cc1cccc(NC(=O)N2CCC(c3ccc4c5c(cccc35)C(=O)N4[C@@H]3CCC(=O)NC3=O)CC2)c1 (single isomer, unassigned) [Example 187a]
< 50 nM	≥ 1000 nM	O=C(O)COc1c(C(=O)O)sc(-c2cccc(NC3CCN(S(=O)(=O)Cc4ccc(F)c(NC(=O)C5CN(C(=O)CNc6cccc7c6CN(C6CCC(=O)NC6=O)C7=O)C5)c4)CC3)c2)c1Cl (stereo not shown) [Example 78]
< 50 nM	< 50 nM	Cn1c(=O)n(C2CCC(=O)NC2=O)c2ccc([C@@H]3CCN(C(=O)Nc4cccc(CS(=O)(=O)N5CC[C@H](Nc6cccc(-c7sc(C(=O)O)c(OCC(=O)O)c7Cl)c6)CC5(C)C)c4)CC3(F)F)cc21 (stereo partly drawn) [Example 169, 3-(carboxymethoxy)-4-chloro-5-(3-(((4S)-1-((3-((4S)-4-(1-(2,6-dioxopiperidin-3-yl)-3-methyl-2-oxo-2,3-dihydro-1H-benzo[d]imidazol-5-yl)-3,3-difluoropiperidine-1-carboxamido)benzyl)sulfonyl)-2,2-dimethylpiperidin-4-yl)amino)phenyl)thiophene-2-carboxylic acid]

Reference: patent US20250302815A1, “PROTEIN TYROSINE PHOSPHATASE TARGETING LIGANDS” (CALICO LIFE SCIENCES LLC, priority 2021, published 2025)
